The values that follow come from article PMC8375385, “In vitro Effect of Harmine Alkaloid and Its N-Methyl Derivatives Against Toxoplasma gondii” (Frontiers in Microbiology, 2021).

What is called IC50 is the midpoint of a concentration-inhibition curve.

“Also recorded” adds a separate entry of the source. Read-outs that look alike come from different tables or passages of the source. A value given as a limit tells only on which side of the number the result lay.

Series [1] can be described thus: MTT cytotoxicity on Vero host cells, 2 days. The note with it: African green monkey (Cercopithecus aethiops), CC50, Vero cells, 2 days of treatment (Table 1 footnote a).
The subject of the next series is T. gondii RH strain. The arrangement: method as in not given. The note with it: footnote text not given, ref not given, cited from earlier work.
The test system of series [2] is T. gondii RH RFP tachyzoites. The experiment in a line: Lytic cycle growth assay (RFP fluorescence). It is filed as cell-based, Toxoplasma gondii. Particulars: for IC50: Toxoplasma gondii, Fibroblast; for effect on tachyzoite growth: up to 10 μM, 3 d.p.i.
The next series concerns T. gondii γH2A.X. As to the kind of experiment: Western blot of γH2A.X in intracellular tachyzoites. It is filed as cell-based, Toxoplasma gondii. Particulars: intracellular tachyzoites, 2 days; CPT 10 μM or 3 7.5 μM alone. How it is done: Monolayers of hTERT cells grown in 12-well plates were infected with 5 × 10^6 tachyzoites of the RH Δhxgprt strain. After the invasion process, cells were washed with PBS and incubated with 3 (7.5 μM), CPT (10 μM), 3 (7.5 μM) plus CPT (10 μM), or the vehicle (DMSO), diluted in supplemented DMEM for 2 days. Then, infected cells were harvested by trypsinization, centrifuged, resuspended in PBS, and lysed by freeze–thaw cycling. Samples were resolved by SDS-PAGE (15%), and a western blot assay was conducted. Membranes were incubated (1 h, RT) with rabbit anti-T. gondii γH2A.X (1:500) ([Contreras et al., 2021]) and murine anti-SAG1 (Novus Biologicals, 1:500). Finally, they were washed several times with PBS-T and incubated with alkaline phosphatase-conjugated anti-rabbit or anti-mouse secondary antibodies, diluted to 1:4,000 (Santa Cruz Biotechnology). Immunoreactive protein bands were visualized by the NBT-BCIP (Promega) method. Densitometric analysis of scanned images was performed using the Image-Pro Plus software.

Series [3] concerns T. gondii RH Δhxgprt tachyzoites. The experiment in a line: Replication assay (tachyzoites per PV). It is filed as cell-based, Toxoplasma gondii. The note with it: for % PV (1P): intracellular tachyzoites in Vero cells, 7.5 μM, 2 days of incubation. How it is done: The effect of βCs on the replication process was evaluated on both extracellular and intracellular treated tachyzoites of the strain RH Δhxgprt. In the first case, the procedure followed was described above (see invasion assay), but after allowing the invasion, samples were washed with PBS and incubated for 1 day with supplemented DMEM (without drugs), before fixing and staining. To investigate βCs’ action on intracellular parasites, confluent Vero cells grown in 24-well plates were infected with 2 × 10^6 tachyzoites per well and treated for 2 days with different concentrations of the investigated drugs or the vehicle (DMSO) as negative control. Finally, they were fixed and immunolabeled as detailed previously. The number of tachyzoites per PV was analyzed under a microscope with × 63 magnification. At least 100 PVs selected at random were scored in triplicates, per compound dose, in two independent sets of experiments. Results are depicted as the mean percentage of PVs (% PV) that contained a geometric progression 2^n (with “n” being a natural number ≥ 0) of tachyzoites per PV ± SEM.

Series [4] shares this test system. As to the kind of experiment: Invasion assay, pretreated extracellular tachyzoites. It is filed as cell-based, Toxoplasma gondii. The note with it: extracellular tachyzoites preincubated 1 h, 0 up to ∼50 μM, Vero cells. How it is done: Extracellular tachyzoites of RH Δhxgprt strain (2 × 10^6) were preincubated for 1 h (at 37°C and 5% CO2) with different doses of the assayed compounds (up to 40–50 μM) or the vehicle (DMSO) diluted in supplemented DMEM. Parasites were, then, centrifuged, resuspended in supplemented DMEM, and were allowed to invade Vero cell monolayers grown on coverslips in 24-well plates by incubation for 10 min on ice followed by 1 h at 37°C. Invasion assay was performed as described elsewhere ([Yañuk et al., 2017]). To facilitate counting, cells were analyzed by indirect immunofluorescence assay (IFA). Immunostaining was performed using anti-SAG1 mouse monoclonal (Novus Biologicals, 1:50)/goat anti-mouse Alexa Fluor 488 (Invitrogen, 1:4,000) antibodies. Fifty random fields per sample, with a similar number of host cells, were analyzed under microscope (Zeiss Axio Observer Colibri 7, magnification × 63). The number of parasitophorous vacuoles per field (PV/field) was counted. Data are presented as means of PV/field ± SEM. Two independent experiments were performed in duplicates.

Another series is described as follows: in vitro. The note with it: African green monkey (Cercopithecus aethiops).
Series [5] relates to T. gondii RH Δhxgprt tachyzoites. The experiment in a line: Tachyzoite cell cycle analysis by flow cytometry. It is filed as cell-based, Toxoplasma gondii. Particulars: infected hTERT fibroblasts, 2 days; 1–3 at 7.5 μM, SDZ at 500 μM. How it is done:
Tachyzoites of the RH Δhxgprt strain (3 × 10^6) were added to hTERT cell monolayers grown into six-well plates. After invasion was allowed, the medium was changed, and infected cells were incubated for 2 days with 1, 2, and 3 (7.5 μM); SDZ (500 μM, positive control); or the vehicle (negative control), diluted in supplemented DMEM. Then, cells were detached using trypsin/EDTA solution and gently ruptured by successive passages through 27- and 30-gauge needles in order to obtain free parasites. Samples were centrifuged (2,000 rpm, 10 min), washed with PBS, fixed with 70% ethanol, and stored for 1 day at −20°C. Afterward, samples were processed and stained as described previously ([Munera Lopez et al., 2019]). At least 10,000 tachyzoites per sample were analyzed by flow cytometry measurements, carried out in a BD FACSCalibur equipment. Results were analyzed using FlowJo software 7.6. All assays were performed in duplicates, in two independent experiments.
(In general: Flow cytometry measures light scatter and fluorescence of single cells or particles in a stream.)

The test system of another series is ctDNA. The note with it: pH 7.4, cited from earlier work.
In series [6] the test system is T. gondii RH Δhxgprt tachyzoites. The arrangement: method as in Alomar et al. (2013). The note with it: 1-h-pretreated extracellular tachyzoites, 25–40 μM, 1 day of incubation; ref Alomar et al. (2013); cited from earlier work.
The next series relates to topoisomerase I. Also on record: method as in Cao et al., 2005. Particulars: cell-free system, ref Cao et al., 2005, cited from earlier work.
The next series concerns Vero cells. As to the kind of experiment: MTT cytotoxicity on Vero host cells, 2 days. The note with it: Vero cells, 2 days of treatment (Table 1 footnote a).
The test system of series [7] is T. gondii RH Δhxgprt tachyzoites. The arrangement: method as in Alomar et al. (2013). Particulars: extracellular tachyzoites preincubated 1 h, 0 up to ∼50 μM, Vero cells; ref Alomar et al. (2013); cited from earlier work.
A further series deals with human topoisomerase II. Also on record: method as in Cao et al., 2005. Particulars: 600 μM; ref Cao et al., 2005; cited from earlier work.
A short description of series [8]: MTT cytotoxicity on hTERT fibroblasts, 4 days. It is filed as cell-based, human. The note with it: human, MTT, 4 days of incubation (Table 1 footnote b). How it is done: The same assay was performed for hTERT fibroblasts, incubated for 4 days with different concentrations of 3. Absorbance was read at 540 nm (reference wavelength: 700 nm) in a plate reader (Synergy H1 Hybrid Reader, BioTek). Average absorbance from background wells (without cells, treated as the samples) was subtracted out, to obtain corrected values (A540 corr). The percentage of cell viability was calculated as follows:
Cellviability(%)=A540corrtreatedcells/A540corruntreatedcells×100
CC50 values were obtained by nonlinear regression analysis of cell viability (%) vs. log[compound] with a variable Hill’s slope, using the GraphPad Prism 5.03 software. Each concentration was assayed in triplicates, in three independent sets of experiments. To avoid effects of evaporation, outer wells were not used.

The subject of the next series is host cells. The arrangement: method as in not given. Particulars: Table 1 footnote c, footnote text not given; ref not given; cited from earlier work.
The mark [9] stands for this setting: 72 h, RH RFP strain in hTERT fibroblasts, 3 d.p.i. (Table 1 footnote d), read-out: IC50 (converted).

On to `Nc1ccc(S(=O)(=O)Nc2ncccn2)cc1` [SDZ, sulfadiazine, reference compound], for which the CC50 at 2 days in [1] (Vero cells (monolayers)) is over 500 µM. Besides, the figures for the IC50 (in the series on T. gondii RH strain (Table 1 footnote g); with T. gondii RH strain (Table 1 footnote h); in series [2] (setting [9])) were 2400 to 2800 µM, 308 µM and about 500 µM, respectively. The “decrease in RFU values with respect to untreated controls” value in [2] (SDZ 250 and 500 μM, RH RFP in hTERT fibroblasts) was about 50%.

For the compound `CC[C@@]1(O)C(=O)OCc2c1cc1n(c2=O)Cc2cc3ccccc3nc2-1` [CPT, camptothecin, reference compound], in the series with T. gondii γH2A.X, the γH2A.X levels entry is listed as “notable increase”.

For the compound `COc1ccc2c(c1)[nH]c1c(C)[n+](C)ccc12` [Compound 2, 2-methyl-harminium], the “increase of % PV with one parasite (% PV (1P)) vs control” value in series [3] (1-h-pretreated extracellular tachyzoites, 5–50 μM, 1 day of incubation without drug) is reported as “around fourfold”. In addition, the “% PV (1P)” value in series [3] came to 68%. Besides, the “effect on invasion process (PV/field)” value in [4] is listed as “negligible or rather low effect”. In the series “in vitro”, this compound showed a CC50 at 2 days of over 500 µM. Also, the “effect on tachyzoite cell cycle (DNA content, G1 vs S/M)” value in [5] is on record as “arrest in S/M phases; also recorded: significant enrichment in tachyzoite DNA content compatible with S/M phases”. Besides, the “effect on tachyzoite growth” value in [2] (RH RFP in hTERT fibroblasts) was “no major impact”. In series [2] (setting [9]), the IC50 was over 10 µM. For the same compound, the “overall binding constant to ctDNA” value with ctDNA (ref Denofrio et al., 2020) is on record as 5.9 ± 0.3 × 10^3 M^–1 in bp.

For the compound `COc1ccc2c(c1)[nH]c1c(C)nccc12` [Compound 1, harmine], in series [3], the “% PV (1P)” value is 65%. Also, the “change in % PV with two parasites (% PV (2P)) vs control” value in series [6] was “sharp increase”. Also, the “inhibition of topoisomerase I activity” value with topoisomerase I (50 μM) is recorded as “strongly decreases”; in the series on topoisomerase I (150 μM), “inhibited”. Moreover, the CC50 in the series with Vero cells came out at 57 ± 4 µM. For the same compound, the CC50 at 2 days in [1] was about 60 µM. In addition, in [7], the “effect on invasion process (PV/field)” value is given as “inhibited”. Further, the “inhibition of human topoisomerase II” value in the series with human topoisomerase II is recorded as “do not inhibit”. Besides, in series [5], the “effect on tachyzoite cell cycle (DNA content, G1 vs S/M)” value was “negligible or null effect”. The CC50 at 4 days in series [8] is 49 µM. The “selectivity index (SI)” value in [2] (CC50 hTERT 4 days / IC50 at 4 d.p.i.) is on record as under 5. Besides, the “effect on tachyzoite growth” value in series [2] (RH RFP in hTERT fibroblasts) is given as “no major impact”. The 50% inhibitory concentration (IC50) in [2] (72 h) and in series [2] (96 h) was over 10 µM in each case. The “overall binding constant to ctDNA” value in the series on ctDNA (ref Yañuk et al., 2018) is recorded as 7.7 ± 0.2 × 10^3 M^–1 in bp.

Consider `CCc1nc(N)nc(N)c1-c1ccc(Cl)cc1` [Pyrimethamine, pyrimethamine], for which the CC50 with host cells was over 40.2 µM. Besides, the IC50 in the series with T. gondii RH strain (Table 1 footnote g) was 0.8 µM; in the series with T. gondii RH strain (reported on RH strain, Table 1 footnote c), 3.4 µM.
